# Test results as given in patent publication US20050059639A1, “Ophthalmic compositions and method for treating eye discomfort and pain” (priority 2003, published 2005).
# Marks after values point to notes of the source that are not given here.
# Test system: medial canthus of the eyelids
# Assay: Sensory quality of the solution on the medial canthus of the eyelids / eye surface
# Type: in vivo, human
# Conditions: eye surface
# Excerpt: [table] In selecting a particular analog, it is desirable to have one that has a long duration of action (several hours) and minimal stinging and burning sensations. These parameters are not predicted by the cooling effect of these substances on the human tongue, but must be determined by experiment. […] Thus, the hexyl analog is the preferred therapeutic of the two. The other particularly preferred analogs that have the desired qualities of long duration of action and absence of stinging and burning effects are identified with an asterisk in Table 1.
Compound,activity in producing stinging and burning sensations relative to hexyl analog,duration of action on the eye surface relative to hexyl analog
"CCCCCCCP(=O)(C(C)CC)C(C)CC (stereo not drawn) [n-C7H15 / sec-C4H9 / sec-C4H9, disec-butyl-n-heptyl-phosphine oxide]",three times more active,half the duration of action

# Same assay, conditions: solution applied on the medial canthus of the eyelids
row,Compound,Sensory Quality
1,CCCP(=O)(CCC)CCC(C)C [i-C5H11 / n-C3H7 / n-C3H7],cool/sting
2,"CCC(C)P(=O)(CCC(C)C)CCC(C)C (stereo not drawn) [iso-C5H11 / iso-C5H11 / sec-C4H9, di-isopentyl-sec-butyl phosphine oxide]",cool/sting
3,CCCCCP(=O)(CC)CCCCC [n-C5H11 / n-C5H11 / n-C2H5],cool/sting
4,CCCCCCP(=O)(C(C)C)C(C)CC (stereo not drawn) [n-C6H13 / iso-C3H7 / sec-C4H0],cool/sting
5,CCCCCCP(=O)(CCC(C)C)C(C)C (stereo not drawn) [n-C6H13 / iso-C5H11 / iso-C3H7],cool only
6,CCCCCCP(=O)(CC)CCCCCC [n-C6H13 / n-C6H13 / n-C2H5],cool/sting
7,CCCCCCP(=O)(CCC)C(C)(C)C (stereo not drawn) [n-C6H13 / tert-C4H9 / n-C3H7],cool only
8,CCCCCCP(=O)(CCCC)C(C)(C)C (stereo not drawn) [n-C6H13 / tert-C4H9 / n-C4H9],cool only
9,CCCCCCCP(=O)(C(C)C)C(C)CC (stereo not drawn) [n-C7H15 / iso-C3H7 / sec-C4H9],cool only
10,"CCCCCCCP(=O)(C(C)CC)C(C)CC (stereo not drawn) [n-C7H15 / sec-C4H9 / sec-C4H9, disec-butyl-n-heptyl-phosphine oxide]",cool/sting

# Test system: tongue of human volunteers
# Assay: Cooling sensations when applied to the tongue of human volunteers
# Type: in vivo
# Conditions: duration of the cooling action on the tongue
# Procedure: (§1) The therapeutic concentrations of the preferred analogs are in the range of 10 to 80 μg/ml […], but concentrations as low as 0.1 μg/ml may elicit effects in sensitive individuals.
row,Compound,Duration of Action [min]
1,CCCP(=O)(CCC)CCC(C)C [i-C5H11 / n-C3H7 / n-C3H7],5
2,"CCC(C)P(=O)(CCC(C)C)CCC(C)C (stereo not drawn) [iso-C5H11 / iso-C5H11 / sec-C4H9, di-isopentyl-sec-butyl phosphine oxide]",5
3,CCCCCP(=O)(CC)CCCCC [n-C5H11 / n-C5H11 / n-C2H5],5
4,CCCCCCP(=O)(C(C)C)C(C)CC (stereo not drawn) [n-C6H13 / iso-C3H7 / sec-C4H0],45
5,CCCCCCP(=O)(CCC(C)C)C(C)C (stereo not drawn) [n-C6H13 / iso-C5H11 / iso-C3H7],5
6,CCCCCCP(=O)(CC)CCCCCC [n-C6H13 / n-C6H13 / n-C2H5],5
7,CCCCCCP(=O)(CCC)C(C)(C)C (stereo not drawn) [n-C6H13 / tert-C4H9 / n-C3H7],7.5
8,CCCCCCP(=O)(CCCC)C(C)(C)C (stereo not drawn) [n-C6H13 / tert-C4H9 / n-C4H9],5
9,CCCCCCCP(=O)(C(C)C)C(C)CC (stereo not drawn) [n-C7H15 / iso-C3H7 / sec-C4H9],18
10,"CCCCCCCP(=O)(C(C)CC)C(C)CC (stereo not drawn) [n-C7H15 / sec-C4H9 / sec-C4H9, disec-butyl-n-heptyl-phosphine oxide]",10

# Same assay, conditions: hexyl vs heptyl analog
row,Compound,potency on the human tongue (comparison of the two analogs)
1,"CCCCCCCP(=O)(C(C)CC)C(C)CC (stereo not drawn) [n-C7H15 / sec-C4H9 / sec-C4H9, disec-butyl-n-heptyl-phosphine oxide]",about equipotent

# Same assay, conditions: reciprocal of threshold, normalized to unity for analogs with 1.25 μg/ml
row,Compound,Relative Potency
1,CCCP(=O)(CCC)CCC(C)C [i-C5H11 / n-C3H7 / n-C3H7],<0.005
2,"CCC(C)P(=O)(CCC(C)C)CCC(C)C (stereo not drawn) [iso-C5H11 / iso-C5H11 / sec-C4H9, di-isopentyl-sec-butyl phosphine oxide]",0.06
3,CCCCCP(=O)(CC)CCCCC [n-C5H11 / n-C5H11 / n-C2H5],<0.008
4,CCCCCCP(=O)(C(C)C)C(C)CC (stereo not drawn) [n-C6H13 / iso-C3H7 / sec-C4H0],2.5
5,CCCCCCP(=O)(CCC(C)C)C(C)C (stereo not drawn) [n-C6H13 / iso-C5H11 / iso-C3H7],1
6,CCCCCCP(=O)(CC)CCCCCC [n-C6H13 / n-C6H13 / n-C2H5],0.06
7,CCCCCCP(=O)(CCC)C(C)(C)C (stereo not drawn) [n-C6H13 / tert-C4H9 / n-C3H7],0.36
8,CCCCCCP(=O)(CCCC)C(C)(C)C (stereo not drawn) [n-C6H13 / tert-C4H9 / n-C4H9],0.8
9,CCCCCCCP(=O)(C(C)C)C(C)CC (stereo not drawn) [n-C7H15 / iso-C3H7 / sec-C4H9],10
10,"CCCCCCCP(=O)(C(C)CC)C(C)CC (stereo not drawn) [n-C7H15 / sec-C4H9 / sec-C4H9, disec-butyl-n-heptyl-phosphine oxide]",0.8

# Same assay, conditions: threshold for producing cooling sensations on the tongue of human volunteers
row,Compound,Threshold [µg/mL]
1,CCCP(=O)(CCC)CCC(C)C [i-C5H11 / n-C3H7 / n-C3H7],>250
2,"CCC(C)P(=O)(CCC(C)C)CCC(C)C (stereo not drawn) [iso-C5H11 / iso-C5H11 / sec-C4H9, di-isopentyl-sec-butyl phosphine oxide]",20
3,CCCCCP(=O)(CC)CCCCC [n-C5H11 / n-C5H11 / n-C2H5],>150
4,CCCCCCP(=O)(C(C)C)C(C)CC (stereo not drawn) [n-C6H13 / iso-C3H7 / sec-C4H0],0.5
5,CCCCCCP(=O)(CCC(C)C)C(C)C (stereo not drawn) [n-C6H13 / iso-C5H11 / iso-C3H7],1.25
6,CCCCCCP(=O)(CC)CCCCCC [n-C6H13 / n-C6H13 / n-C2H5],20
7,CCCCCCP(=O)(CCC)C(C)(C)C (stereo not drawn) [n-C6H13 / tert-C4H9 / n-C3H7],3.5
8,CCCCCCP(=O)(CCCC)C(C)(C)C (stereo not drawn) [n-C6H13 / tert-C4H9 / n-C4H9],1.5
9,CCCCCCCP(=O)(C(C)C)C(C)CC (stereo not drawn) [n-C7H15 / iso-C3H7 / sec-C4H9],0.1
10,"CCCCCCCP(=O)(C(C)CC)C(C)CC (stereo not drawn) [n-C7H15 / sec-C4H9 / sec-C4H9, disec-butyl-n-heptyl-phosphine oxide]",1.5

# Test system: closed eyes of volunteers
# Assay: Eye drops applied to medial canthus of closed eyes, kept closed about 1 min
# Type: in vivo, human
# Conditions: 0.2% (2.0 mg/ml) solution, 2-3 drops, closed eyes, three volunteers
# Procedure: For trialkyl phosphine oxide eye drop solutions of this invention, I have discovered an indirect method of application as follows. The eye dropper is aimed at the medial canthus (nasal corner) of the eye, the eye is then closed, the dispenser is squeezed to emit the eye drops, and the eye kept closed for about 1 min. This method of application can substantially avoid stinging and burning sensations. Apparently, the adaptation period of about 1 min allows the sensory processes to develop tolerance to the initial stinging and burning stimuli. For example, if a 0.4 mg/ml solution of disec-butyl, n-hexyl-phosphine oxide [synonym, 1-(Di-sec-butyl-phosphinoyl)-hexane] in isotonic-buffered saline is dropped on the open eye, it causes stinging and burning for about 1 min. However, applied onto the corners of the eye, with the eyes closed for 1 min, these stinging and burning sensations are avoided. The medial canthus is preferred to the lateral canthus because the geometry of the orbit permits a longer residence time for the eye drop applied to the medial corner. Drops applied to the lateral canthus are less precisely located and rapidly dribble off the zygoma (cheekbone). A user can be instructed in this indirect method by including the instructions on packaging labels and/or inserts associated with the doses.
# The solution, as in Example 1, was then used by another three subjects with the instruction to apply the droplets to the nasal corner of the eye (medial canthus), without touching the tip of the dispenser to the eyelid surface, to let the solution seep into the eyelids and eye surface but to keep eyes closed for at least one minute. The subjects reported slight sensations of stinging when the eyes were opened, effects that lasted for less than 1 minute, followed by sensations of coolness and comfort lasting at least two hours. The experiment was then repeated, but with a higher concentration of 0.2% of disec-butyl-n-hexyl-phosphine oxide.
# A 0.2% (2.0 mg/ml) disec-butyl-n-heptyl-phosphine oxide eye drop solution was prepared by adding the compound to an isotonic solution of sodium chloride, 0.65% in deionized water, monobasic potassium phosphate/sodium hydroxide buffer, preserved with disodium EDTA and benzalkonium chloride. The liquid was individually aliquoted into a ¼ oz. bottle with a Yorker spout (E.D. Luce Packaging) suitable for droplet delivery. This solution was then applied to the closed eyes of three volunteers, with two to three drops of the solution applied to each eye. The subjects complained of stinging and burning sensations on the eye surface, lasting for about 2 min. A series of six solutions were then prepared in which six different hydrocarbon polyols were added to the parent 0.2% solution. The individual additions were 1.5% sucrose, 1.5% fructose, 1.5% dextrose, 1.5% lactose, 1.5% inositol, or 0.5% carboxymethylcellulose. […] There was some tearing, but no evidence of increased eye redness from the hydrocarbon polyols and subjective complaints of discomfort were minimal.
row,Compound,duration of stinging and burning sensations on the eye surface
1,"CCCCCCCP(=O)(C(C)CC)C(C)CC (stereo not drawn) [n-C7H15 / sec-C4H9 / sec-C4H9, disec-butyl-n-heptyl-phosphine oxide]",about 2 min

# Test system: eye disorders
# Assay: Estimate of ideal therapeutic eye drop concentration to relieve eye disorders
# Type: in vivo, human
# Conditions: estimate of ideal therapeutic concentration applied as eye drops to relieve eye disorders
# Procedure: as §1
# The potency of certain specific trialkyl phosphine oxides, e.g. isopropyl, sec-butyl, n-octyl-phosphine oxide, in relieving eye discomfort is exceptionally high, on the order of 0.001%. In such situations, an alternative preferred description of an effective unit dose is 0.01 mg/ml or 10 μg/ml, which is equivalent to 0.001% weight percent.
row,Compound,Eye Therapy
1,CCCP(=O)(CCC)CCC(C)C [i-C5H11 / n-C3H7 / n-C3H7],>1500 µg/mL
2,"CCC(C)P(=O)(CCC(C)C)CCC(C)C (stereo not drawn) [iso-C5H11 / iso-C5H11 / sec-C4H9, di-isopentyl-sec-butyl phosphine oxide]",>150 µg/mL
3,CCCCCP(=O)(CC)CCCCC [n-C5H11 / n-C5H11 / n-C2H5],>1000 µg/mL
4,CCCCCCP(=O)(C(C)C)C(C)CC (stereo not drawn) [n-C6H13 / iso-C3H7 / sec-C4H0],15 µg/mL
5,CCCCCCP(=O)(CCC(C)C)C(C)C (stereo not drawn) [n-C6H13 / iso-C5H11 / iso-C3H7],25* μg/ml
6,CCCCCCP(=O)(CC)CCCCCC [n-C6H13 / n-C6H13 / n-C2H5],>150 µg/mL
7,CCCCCCP(=O)(CCC)C(C)(C)C (stereo not drawn) [n-C6H13 / tert-C4H9 / n-C3H7],30* μg/ml
8,CCCCCCP(=O)(CCCC)C(C)(C)C (stereo not drawn) [n-C6H13 / tert-C4H9 / n-C4H9],25* μg/ml
9,CCCCCCCP(=O)(C(C)C)C(C)CC (stereo not drawn) [n-C7H15 / iso-C3H7 / sec-C4H9],10* μg/ml
10,"CCCCCCCP(=O)(C(C)CC)C(C)CC (stereo not drawn) [n-C7H15 / sec-C4H9 / sec-C4H9, disec-butyl-n-heptyl-phosphine oxide]",15 µg/mL
